Assay in data set [1]: not given
This is another data set of the same source.

Data set [2] is described as follows: Nitrocefin hydrolysis kinetics (absorbance of degraded nitrocefin at 480 nm; initial rates V0, Michaelis-Menten fit). The class given is biochemical. Details: Initial nitrocefin-degradation reaction rate, V0: unit not given here. The following applies: for initial rate of nitrocefin degradation reaction (V0): peptide 170 µM, initial nitrocefin 107 µM, first 15 min (Fig. 3f); for Initial nitrocefin-degradation reaction rate, V0: Hepes pH 7.4, average of the six runs. As to the method:
Nitrocefin, a β-lactam widely used as a surrogate substrate of Penicillin in β-lactamase activity assay, was used as a substrate. NC degradation was monitored for 2 h. Nitrocefin stock solution was dissolved in acetonitrile (20 mM) and then diluted with Hepes buffer (50 mM, pH 7.4) to nitrocefin concentration of 360 µM (further dilutions to lower concentrations were made with the 360 µM NC stock). All nitrocefin samples were kept on ice in cold conditions and any further dilution or mixing was performed in ice-cold conditions to avoid self-hydrolysis background reaction. […] Immediately after mixing the samples, the plate was transferred to 20̊ °C pre-cooled plate reader (Multiskan GO, Thermo Scientific, Waltham, MA) and shaken slowly for 10 s. Then, the absorbance of degraded nitrocefin was measured for 2 h at interval of 20 s at λ = 480 nm. Initial production rates (V0) were calculated by slope of the initial linear range of degraded-nitrocefin production at the first 15 min. The reported results are and average of at least five separate measurements (the exact number of repeats, N, is reported next to the values). Each experiment also included blank samples of nitrocefin substrate diluted with buffer instead of PSMα. […] The initial rate calculations were performed while also subtracting the self-degradation of the substrate, to ensure that this product absorbance is a result of PSMα presence.
The initial rates of degraded-nitrocefin production were calculated from the slopes of the first 15 min of measurement as reported above. The initial rates (V0) were fitted using non-linear regression applied with the solver function in excel, either to Michalis–Menten equation V=Vmax.[S]/(KM+S) Where Vmax. Stands for maximal reaction rate, KM stands for Michalis–Menten constant, [S] stands for the substrate molar concentration. Each initial rate value was presented as average ± SEM. The kinetic parameters were calculated by fitting the data to MM model using non-linear regression, and the confidence intervals for each parameter were calculated accordingly.

In data set [3] the test system is O=C(Cc1cccs1)N[C@@H]1C(=O)N2C(C(=O)O)=C(/C=C/c3ccc([N+](=O)[O-])cc3[N+](=O)[O-])CS[C@H]12. The data set is described as follows: Initial rates of nitrocefin hydrolysis by pre-assembled PSMα peptides (170 µM) followed by absorbance at 480 nm in 50 mM Hepes pH 7.4 at 20 °C, non-linear fit to the Michaelis-Menten equation. The class given is biochemical. Here is the method:
Measurements of V0 as function of initial substrate (nitrocefin) concentrations (keeping the PSMα concentration constant at 170 µM, assuring amyloid formation, e.g., above the 30 μM threshold) are depicted in Fig. 2c. […] Table S1 summarizes the pertinent enzymatic parameters extracted from the initial reaction rate data in Fig. 2c using non-linear regression fit to a MM reaction model. Figure 2d presents the catalytic efficiencies, calculated for each peptide by dividing the turnover rate by the MM-constant (Kcat/KM), considered a measure for both substrate binding affinity and conversion kinetics into product.
(§1) Nitrocefin, a β-lactam widely used as a surrogate substrate of Penicillin in β-lactamase activity assay, was used as a substrate. NC degradation was monitored for 2 h. Nitrocefin stock solution was dissolved in acetonitrile (20 mM) and then diluted with Hepes buffer (50 mM, pH 7.4) to nitrocefin concentration of 360 µM (further dilutions to lower concentrations were made with the 360 µM NC stock). All nitrocefin samples were kept on ice in cold conditions and any further dilution or mixing was performed in ice-cold conditions to avoid self-hydrolysis background reaction. 120 µL of the pre-cooled nitrocefin solutions were mixed inside precooled clear 96-well plate (Greiner F-bottom) with 60 µL of pre-incubated PSMα solution (510 µM PSMα, incubated in DIW and later buffered in Hepes 50 mM, pH 7.4). Immediately after mixing the samples, the plate was transferred to 20̊ °C pre-cooled plate reader (Multiskan GO, Thermo Scientific, Waltham, MA) and shaken slowly for 10 s. Then, the absorbance of degraded nitrocefin was measured for 2 h at interval of 20 s at λ = 480 nm. Initial production rates (V0) were calculated by slope of the initial linear range of degraded-nitrocefin production at the first 15 min. The reported results are and average of at least five separate measurements (the exact number of repeats, N, is reported next to the values). Each experiment also included blank samples of nitrocefin substrate diluted with buffer instead of PSMα. All presented results include subtraction of buffer control. The initial rate calculations were performed while also subtracting the self-degradation of the substrate, to ensure that this product absorbance is a result of PSMα presence.
The initial rates of degraded-nitrocefin production were calculated from the slopes of the first 15 min of measurement as reported above. […] The kinetic parameters were calculated by fitting the data to MM model using non-linear regression, and the confidence intervals for each parameter were calculated accordingly. […]
Values derive from the fitting of the initial rates to MM model and are presented as calculated-value ± confidence interval. […]

For data set [4] the test system is unchanged. The data set is described as follows: Source-data fits for PSMα variants (170 µM): initial rates of nitrocefin hydrolysis (up to 240 µM) by absorbance at 480 nm in 50 mM Hepes pH 7.4 at 20 °C. It is filed as biochemical. Here is the method: as §1
The initial rates of degraded-nitrocefin production were calculated from the slopes of the first 15 min of measurement as reported above. […] The kinetic parameters were calculated by fitting the data to MM model using non-linear regression, and the confidence intervals for each parameter were calculated accordingly.

Data set [5] is classed as biochemical. The following applies: Fap 20 µM, nitrocefin 100 µM, A480, ten hours (Fig. S3). Here is the method: Figure S3. Cross-β bacterial amyloids of Pseudomonas Aeruginosa. Fap B and Fap C were incubated for seven days at 37 °C for fibrillation. Then, upon appearance of typical turbidity the samples were diluted and nitrocefin was added to the samples, creating solutions of 20 µM Fap and nitrocefin in concentration of 100 µM. The absorbance of the nitrocefin was recorded in microplate reader at 480 nm for ten hours, resulting low absorbance relatively to the PSMα at close mass concentration (w/v, 300 µM). This comparison was necessary due to the major differences in sequence length of the Fap proteins and the short PSMα3 peptide. The results are shown as absorbance rather than product concentration due to the slight turbidity of the Fap samples.
(1 picture or pasted object on this page, not shown here)

Where [6] appears, read: AVG of runs, fit of V0 vs NC concentration.
The mark [7] stands for this setting: Michaelis-Menten fit of nitrocefin titration, single run, block r246-r259.
Where [8] appears, read: Michaelis-Menten fit of nitrocefin titration, single run, block r262-r275.
Where [9] appears, read: Michaelis-Menten fit of nitrocefin titration, single run, block r278-r291.
Where [10] appears, read: Michaelis-Menten fit of nitrocefin titration, single run, block starting r293.

We go through 11 molecules from PMC10713593, “Staphylococcus aureus functional amyloids catalyze degradation of β-lactam antibiotics” (Nature Communications, 2023).

Where no end group is shown, it is not given here.

For the molecule `CSCC[C@H](N)C(=O)N[C@@H](CCC(=O)O)C(=O)N[C@@H](Cc1ccccc1)C(=O)N[C@H](C(=O)N[C@@H](C)C(=O)N[C@@H](CCCCN)C(=O)N[C@@H](CC(C)C)C(=O)N[C@@H](Cc1ccccc1)C(=O)N[C@@H](CCCCN)C(=O)N[C@H](Cc1ccccc1)C(=O)N[C@H](Cc1ccccc1)C(=O)N[C@@H](CCCCN)C(=O)N[C@@H](CC(=O)O)C(=O)N[C@@H](CC(C)C)C(=O)N[C@@H](CC(C)C)C(=O)NCC(=O)N[C@@H](CCCCN)C(=O)N[C@@H](Cc1ccccc1)C(=O)N[C@@H](CC(C)C)C(=O)NCC(=O)N[C@@H](CC(N)=O)C(=O)N[C@@H](CC(N)=O)C(=O)O)C(C)C` [α3-(d)FF], the ATR-FTIR amide-I shoulder stood at 1630 cm⁻¹. The molecule also gave an ATR-FTIR amide-I peak/maximum in data set [1] of 1640 cm⁻¹. Also, the “initial rate of nitrocefin degradation reaction (V0)” value (shortened to “initial rate”) in data set [2] (Hepes 50 mM pH 7.4, 20 °C) is 30 µM/h.
KNKMFGVALFNFGFKEDLLFLK [α3-scrambled] had an ATR-FTIR amide-I shoulder of 1680 cm⁻¹. The same molecule returned an ATR-FTIR amide-I peak/maximum in data set [1] of 1630 cm⁻¹. In addition, in data set [2] (setting [6]), the “Kcat” value turned out to be 3362023 s⁻¹ and the “Vmax” value was found to be 31897124362167 µM/h. Moreover, in data set [2] (AVG of runs, fit of V0 vs nitrocefin (NC) concentration), the “E [1/Ms] (catalytic efficiency)” value turned out to be 0.653 M⁻¹ s⁻¹. Moreover, in data set [2] (setting [7]), the “Kcat” value is 406977 s⁻¹ and the “Vmax” value stood at 249070136309 µM/h. In addition, in data set [2] (setting [8]), the “Kcat” value came to 0.0002595 s⁻¹, the Km was found to be 438 µM and the “Vmax” value turned out to be 158.82 µM/h. In data set [2] (setting [9]), the “Kcat” value is 0.0002595 s⁻¹, the Km worked out at 438 µM and the “Vmax” value amounted to 158.82 µM/h. Moreover, in data set [2] (setting [10]), the “Kcat” value stood at 3.556e-05 s⁻¹, the Km was determined as 37.6 µM and the “Vmax” value is 21.76 µM/h. Also, in data set [2] (Hepes 50 mM pH 7.4, 20 °C), the “initial rate” value came out at 21 µM/h.
Consider MGIIAGIIKVIKSLIEQFTGK [PSMα1], for which the ATR-FTIR amide-I peak/maximum in data set [1] came out at 1650 cm⁻¹. Also, the “Initial nitrocefin-degradation reaction rate, V0” value in data set [2] (PSMα 4.01424 uM, nitrocefin 60 µM) is given as 0.191; in data set [2] (PSMα 6.02136 uM, nitrocefin 60 µM), -0.01182; in data set [2] (PSMα 9.03205 uM, nitrocefin 60 µM), -0.1032; in data set [2] (PSMα 13.5481 uM, nitrocefin 60 µM) it was -0.1644; in data set [2] (PSMα 20.3221 uM, nitrocefin 60 µM), -0.2267; in data set [2] (PSMα 30.4832 uM, nitrocefin 60 µM), -0.2129. The “Initial nitrocefin-degradation reaction rate, V0” value is recorded as -0.2655 in data set [2] (PSMα 45.7247 uM, nitrocefin 60 µM); -0.7898 in data set [2] (PSMα 68.5871 uM, nitrocefin 60 µM); 9.2527 in data set [2] (PSMα 102.881 uM, nitrocefin 60 µM); 10.6002 in data set [2] (PSMα 154.321 uM, nitrocefin 60 µM); 20.6526 in data set [2] (PSMα 231.481 uM, nitrocefin 60 µM); 27.2811 in data set [2] (PSMα 347.222 uM, nitrocefin 60 µM). The “nitrocefin degradation yield (turnover)” value in data set [2] (nitrocefin 60 µM, PSMα assemblies 350 µM, Hepes 50 mM pH 7.4, 20 °C, A480, monitored 2 h (Fig. 2a)) is ~ 50%.
In data set [1], “MQFVAKLFKFFKNLLGKFLGNN-NH2 [α3-cationic]” registered an ATR-FTIR amide-I peak/maximum of 1660 cm⁻¹. In data set [2] (Hepes 50 mM pH 7.4, 20 °C), the “initial rate” value is recorded as “around 60 µM/h”.
Consider “PSMα1 (Staphylococcus aureus subsp. aureus NCTC 8325)”, for which the Km in data set [3] was 0.2 mM.
In the case of “PSMα2 (Staphylococcus aureus subsp. aureus MW2)”, the Km in data set [3] stood at 0.23 mM.
Same read-out and setting: then “PSMα3 (Staphylococcus aureus subsp. aureus NCTC 8325)”, with 0.08 mM.
Same read-out and setting: then “PSMα4 (Staphylococcus aureus subsp. aureus MW2)”, with 0.2 mM.
“a3-cationic (Staphylococcus aureus subsp. aureus NCTC 8325; D13N/E2Q)”: in data set [4], the Km stood at 772.188 µM, the Vmax came to 8.13 µM/min and the kcat turned out to be 0.00116 s⁻¹.

B1: FapB: cross-β Pseudomonas Aeruginosa-originated bacterial amyloid (protein, UniProt Q9I2E9 20-189, looked up)
Functional amyloid subunit …: DPLASRNRASIDDSGTYRGNFALNQAAGDAQQQSNVRVVAVGSAALVGSDQRQHLQLDASQPIAASASISGAALRGSGILGVNQGAGLGNQQINAFRLSLSNGPESLDDSVLAQSVALTKVSGSATPVPGGRSVSTDDRAFAGSSGVVQVNQSAGVGNQSMNTLSVRVME
In the case of B1, in data set [5], the “nitrocefin degradation by cross-β bacterial amyloids” value is given as “minor nitrocefin degradation”.

B2: FapC: cross-β Pseudomonas Aeruginosa-originated bacterial amyloid (protein, UniProt Q9I2F0 25-340, looked up)
Functional amyloid subunit …: GNEGGWHPPKPNPQSNNKGGATALVVDTQQNYNNKVSNFGTLNNASVSGSIKDASGNVGVNVAAGDNNQQANAAALASADASFVFGTATASTSVLQSGYGNTLNNYSNPNTASLSNSANNVSGNLGVNVAAGNFNQQKNDLAAAVSNGQYSTAGSAASQTSTGNTTVNSANYAYGGTYVSLKLNADGSYKGTSDQIGDVYLDTWEGQTHPGGSNTGHIDVDSQAQGAKDLNHDGGAFAFKEKGDVDLKGTVSGFIPAIVGFKTPVTNNASLSNSLQNVSGNVGVNIAAGGGNQQSNSLSIAAGCSSCPAGGESLGF
Consider B2, for which the “nitrocefin degradation by cross-β bacterial amyloids” value in data set [5] is recorded as “minor nitrocefin degradation”.

The term Vmax denotes the rate approached at saturating substrate. For orientation: Km means the concentration of substrate that gives half-maximal velocity. One may read the kcat as the number of substrate molecules converted per active site and unit of time at saturation.
